# Assay results: PubChem BioAssay AID2060504 (Molecular Pharmacology Branch, DTP, NCI, 2025)
# Tested on: 636577-100-R-J1-PDC complex spheroid viability
# Test: Anticancer human tumor 636577-100-R-J1-PDC patient-derived endometrial adenocarcinoma cell line growth inhibition [GQUAD]
# Settings: for IC50: curve of first compound; for viability, T/C: stronger effect = lower value
# Summary of the method: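 Viability of tumor cells grown as complex spheroids with endothelial and stromal cells, exposed to drug combinations. Top concentration at or near clinical Cmax (else 10 microM), diluted in half-log increments.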
# [1] = second compound 0.0316 µM, first compound 0.0316 µM
# [2] = second compound 0.0316 µM, first compound 0.1 µM
# [3] = second compound 0.0316 µM, first compound 0.316 µM
# [4] = second compound 0.0316 µM, first compound 1 µM
# [5] = second compound 0.0316 µM, first compound 3.16 µM
# [6] = second compound 0.0316 µM, first compound 10 µM
# [7] = second compound 0.1 µM, first compound 0.0316 µM
# [8] = second compound 0.1 µM, first compound 0.1 µM
# [9] = second compound 0.1 µM, first compound 0.316 µM
# [10] = second compound 0.1 µM, first compound 1 µM
# [11] = second compound 0.1 µM, first compound 3.16 µM
# [12] = second compound 0.1 µM, first compound 10 µM
# [13] = second compound 0.316 µM, first compound 0.0316 µM
# [14] = second compound 0.316 µM, first compound 0.1 µM
# [15] = second compound 0.316 µM, first compound 0.316 µM
# [16] = second compound 0.316 µM, first compound 1 µM
# [17] = second compound 0.316 µM, first compound 3.16 µM
# [18] = second compound 0.316 µM, first compound 10 µM
# [19] = second compound 1 µM, first compound 0.0316 µM
# [20] = second compound 1 µM, first compound 0.1 µM
# [21] = second compound 1 µM, first compound 0.316 µM
# [22] = second compound 1 µM, first compound 1 µM
# [23] = second compound 1 µM, first compound 3.16 µM
# [24] = second compound 1 µM, first compound 10 µM
# [25] = second compound 3.16 µM, first compound 0.0316 µM
# [26] = second compound 3.16 µM, first compound 0.1 µM
# [27] = second compound 3.16 µM, first compound 0.316 µM
# [28] = second compound 3.16 µM, first compound 1 µM
# [29] = second compound 3.16 µM, first compound 3.16 µM
# [30] = second compound 3.16 µM, first compound 10 µM
# [31] = second compound 10 µM, first compound 0.0316 µM
# [32] = second compound 10 µM, first compound 0.1 µM
# [33] = second compound 10 µM, first compound 0.316 µM
# [34] = second compound 10 µM, first compound 1 µM
# [35] = second compound 10 µM, first compound 3.16 µM
# [36] = second compound 10 µM, first compound 10 µM
# 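Also: viability read after seven days of drug exposure.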
# 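For viability, T/C in this document: luminescence signal used as a proxy for viable cells; 100% = DMSO vehicle control wells.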
smiles,measurement,setting,value
COc1ccc([C@@H](O)c2cc(-c3ncnc4cc(N5CCOCC5)ccc34)c(F)cc2Cl)nn1 + Cc1[nH]c2ccc(F)cc2c1-c1nc2c3cccnc3c3ncccc3c2[nH]1,IC50,second compound 0.0316 µM,670 nM
same,IC50,second compound 0.1 µM,586 nM
same,IC50,second compound 0.316 µM,682 nM
same,IC50,second compound 1 µM,1080 nM
same,IC50,second compound 3.16 µM,< 31.6 nM
same,IC50,second compound 10 µM,858 nM
same,"viability, T/C",[1],59.3%
same,"viability, T/C",[2],79.9%
same,"viability, T/C",[3],103%
same,"viability, T/C",[4],26.9%
same,"viability, T/C",[5],47.1%
same,"viability, T/C",[6],26.8%
same,"viability, T/C",[7],44.1%
same,"viability, T/C",[8],105%
same,"viability, T/C",[9],63.6%
same,"viability, T/C",[10],31.3%
same,"viability, T/C",[11],54.6%
same,"viability, T/C",[12],28.8%
same,"viability, T/C",[13],72.8%
same,"viability, T/C",[14],105%
same,"viability, T/C",[15],66%
same,"viability, T/C",[16],47.4%
same,"viability, T/C",[17],48.6%
same,"viability, T/C",[18],30.1%
same,"viability, T/C",[19],71%
same,"viability, T/C",[20],63.6%
same,"viability, T/C",[21],60.5%
same,"viability, T/C",[22],53.6%
same,"viability, T/C",[23],35%
same,"viability, T/C",[24],24.8%
same,"viability, T/C",[25],40%
same,"viability, T/C",[26],38.4%
same,"viability, T/C",[27],43.3%
same,"viability, T/C",[28],33.5%
same,"viability, T/C",[29],20.1%
same,"viability, T/C",[30],16%
same,"viability, T/C",[31],70.2%
same,"viability, T/C",[32],62.5%
same,"viability, T/C",[33],64.2%
same,"viability, T/C",[34],44.8%
same,"viability, T/C",[35],36.7%
same,"viability, T/C",[36],22.3%
CC1COCCN1c1cc(C2(O)CC3CCC(C2)O3)c2cnn(-c3ccn[nH]3)c2n1 (stereo not drawn) + CN(C)c1ccc(Nc2c3ccc(NC(=O)CCN4CCCC4)cc3nc3cc(NC(=O)CCN4CCCC4)ccc23)cc1,IC50,second compound 0.0316 µM,46.2 nM
same,IC50,second compound 0.1 µM,33.6 nM
same,IC50,second compound 0.316 µM,< 31.6 nM
same,IC50,second compound 1 µM,< 31.6 nM
same,IC50,second compound 3.16 µM,< 31.6 nM
same,IC50,second compound 10 µM,< 31.6 nM
same,"viability, T/C",[1],59.8%
same,"viability, T/C",[2],30.1%
same,"viability, T/C",[3],14.8%
same,"viability, T/C",[4],7.23%
same,"viability, T/C",[5],3%
same,"viability, T/C",[6],0.68%
same,"viability, T/C",[7],51.9%
same,"viability, T/C",[8],25.7%
same,"viability, T/C",[9],15.9%
same,"viability, T/C",[10],6.63%
same,"viability, T/C",[11],2.93%
same,"viability, T/C",[12],0.63%
same,"viability, T/C",[13],49.4%
same,"viability, T/C",[14],27.2%
same,"viability, T/C",[15],14.4%
same,"viability, T/C",[16],7.39%
same,"viability, T/C",[17],2.94%
same,"viability, T/C",[18],0.62%
same,"viability, T/C",[19],44.5%
same,"viability, T/C",[20],24.9%
same,"viability, T/C",[21],13.1%
same,"viability, T/C",[22],7.03%
same,"viability, T/C",[23],2.84%
same,"viability, T/C",[24],0.8%
same,"viability, T/C",[25],23.6%
same,"viability, T/C",[26],18.4%
same,"viability, T/C",[27],12.6%
same,"viability, T/C",[28],6.87%
same,"viability, T/C",[29],2.75%
same,"viability, T/C",[30],0.79%
same,"viability, T/C",[31],5.13%
same,"viability, T/C",[32],4.81%
same,"viability, T/C",[33],2.43%
same,"viability, T/C",[34],2.03%
same,"viability, T/C",[35],1.14%
same,"viability, T/C",[36],0.3%
C=CCn1c(=O)c2cnc(Nc3ccc(N4CCN(C)CC4)cc3)nc2n1-c1cccc(C(C)(C)O)n1 + Cc1cnc(CNC(=O)c2c(=O)c3ccc(N4CCCN(C)CC4)nc3n3c2sc2ccccc23)cn1,IC50,second compound 0.0316 µM,< 31.6 nM
same,IC50,second compound 0.1 µM,< 31.6 nM
same,IC50,second compound 0.316 µM,< 31.6 nM
same,IC50,second compound 1 µM,< 31.6 nM
same,IC50,second compound 3.16 µM,< 31.6 nM
same,IC50,second compound 10 µM,< 31.6 nM
same,"viability, T/C",[1],49.8%
same,"viability, T/C",[2],40.3%
same,"viability, T/C",[3],47.3%
same,"viability, T/C",[4],28.2%
same,"viability, T/C",[5],22.4%
same,"viability, T/C",[6],12.1%
same,"viability, T/C",[7],29.4%
same,"viability, T/C",[8],29%
same,"viability, T/C",[9],28.7%
same,"viability, T/C",[10],22.3%
same,"viability, T/C",[11],21.3%
same,"viability, T/C",[12],14.2%
same,"viability, T/C",[13],27.4%
same,"viability, T/C",[14],26.2%
same,"viability, T/C",[15],28.2%
same,"viability, T/C",[16],24.2%
same,"viability, T/C",[17],24.8%
same,"viability, T/C",[18],15.1%
same,"viability, T/C",[19],19.4%
same,"viability, T/C",[20],19.5%
same,"viability, T/C",[21],22.5%
same,"viability, T/C",[22],24.5%
same,"viability, T/C",[23],23.4%
same,"viability, T/C",[24],14.3%
same,"viability, T/C",[25],18.1%
same,"viability, T/C",[26],22.3%
same,"viability, T/C",[27],25.9%
same,"viability, T/C",[28],23.7%
same,"viability, T/C",[29],21.1%
same,"viability, T/C",[30],18.4%
same,"viability, T/C",[31],23%
same,"viability, T/C",[32],22.2%
same,"viability, T/C",[33],24.2%
same,"viability, T/C",[34],19.1%
same,"viability, T/C",[35],25.2%
same,"viability, T/C",[36],23.1%
C#Cc1c(F)ccc2cc(O)cc(-c3ncc4c(N5CC6CCC(C5)N6)nc(OCC56CCCN5CC(F)C6)nc4c3F)c12 (stereo not drawn) + Cc1[nH]c2ccc(F)cc2c1-c1nc2c3cccnc3c3ncccc3c2[nH]1,IC50,second compound 0.0316 µM,6400 nM
same,IC50,second compound 0.1 µM,4770 nM
same,IC50,second compound 0.316 µM,4540 nM
same,IC50,second compound 1 µM,1750 nM
same,IC50,second compound 3.16 µM,< 31.6 nM
same,IC50,second compound 10 µM,< 31.6 nM
same,"viability, T/C",[1],88.5%
same,"viability, T/C",[2],99.4%
same,"viability, T/C",[3],87.9%
same,"viability, T/C",[4],78.7%
same,"viability, T/C",[5],66.7%
same,"viability, T/C",[6],39.9%
same,"viability, T/C",[7],108%
same,"viability, T/C",[8],93.7%
same,"viability, T/C",[9],80.7%
same,"viability, T/C",[10],59.5%
same,"viability, T/C",[11],59.8%
same,"viability, T/C",[12],41.2%
same,"viability, T/C",[13],74.3%
same,"viability, T/C",[14],61%
same,"viability, T/C",[15],72.8%
same,"viability, T/C",[16],78.6%
same,"viability, T/C",[17],56.1%
same,"viability, T/C",[18],36.7%
same,"viability, T/C",[19],53%
same,"viability, T/C",[20],78.2%
same,"viability, T/C",[21],80.5%
same,"viability, T/C",[22],51.8%
same,"viability, T/C",[23],44.2%
same,"viability, T/C",[24],28.1%
same,"viability, T/C",[25],24.1%
same,"viability, T/C",[26],23.5%
same,"viability, T/C",[27],23.5%
same,"viability, T/C",[28],22.6%
same,"viability, T/C",[29],19.3%
same,"viability, T/C",[30],12.7%
same,"viability, T/C",[31],31%
same,"viability, T/C",[32],39.9%
same,"viability, T/C",[33],38.8%
same,"viability, T/C",[34],28.5%
same,"viability, T/C",[35],24.9%
same,"viability, T/C",[36],15.8%
